In patent US11478466B2, “Small molecule promoting osteoblast differentiation” (Cornell University, priority 2019, dated 2022):

Key:
adult zebrafish = assay: Adult zebrafish caudal fin regeneration model; assay type: in vivo, Danio rerio; conditions: 15 μM in tank water, 26 h regeneration at 32° C., vs DMSO
Description: We next tested the regenerative capabilities of zebrafish, which have a robust capacity to replace and renew organs and tissues derived from all three germ layers. Regenerating fin joints are reported to constitute a pre-osteoblast niche from which OSX-expressing (Sp7+) osteoblasts radiate de novo (Ando et al., 2017). Simultaneously, osteoblasts and osteogenic hypertrophic chondrocytes in both early and later stages of differentiation express collagen10 (col10a1) (Huycke et al., 2012).
Animals studies were performed according to protocols approved by the WCMC IACUC. Wildtype (AB/TU hybrid) zebrafish were maintained at 28.5° C. Larval fish were treated from 7 dpf to 8 dpf in tank water with DMSO or with a 24-hour pulse of 15 μM DIPQUO or inert analog BT344 or BT345, and were fixed at 9 dpf in 4% paraformaldehyde overnight rocking at 4° C. Fixed larvae were washed in PBS-0.1% Tween-20 (PBST), followed by 50% ethanol/50% PBST. Larvae were transferred to staining solution (66.5% ethanol, 100 mM MgCl2, 0.02% alizarin red) and incubated for 40 hours, rocking at room temperature in the dark. Larvae were washed in H2O+0.1% Tween-20, and excess stain removed by bleaching for approximately 10 minutes in the dark with a 1:1 mixture of 3% […] and 2% KOH. […] Images were acquired on a Zeiss LSM 800 confocal microscope and Sp7^+/col10a1^+ cells quantified using ImageJ.

zebrafish larvae = assay: Larval zebrafish notochord ossification model (alizarin red); assay type: in vivo, Danio rerio; conditions: 15 μM, 24-h pulse 7-8 dpf, stained at 9 dpf, vs DMSO or inert analogs
Description: DIPQUO Promotes and Accelerates Bone Mineralization In Vivo To address whether the observed effects of DIPQUO on osteoblast differentiation and maturation could extend to an in vivo bone model, we utilized the zebrafish, Danio rerio. First, zebrafish were used as a model system to examine developmental ossification via direct vertebral specification through conversion of the notochord sheath (Inohaya et al., 2007; Laue et al., 2008). During zebrafish larval stages, the extent and pattern of ossification observable at discrete developmental time points are susceptible to perturbation by cytokines or genetic modulation. The contribution of extrinsic factors to notochord ossification and patterning can be measured by alizarin red staining in a manner analogous to its application in gauging osteoblast maturation in cultured cells.
Animals studies were performed according to protocols approved by the WCMC IACUC. Wildtype (AB/TU hybrid) zebrafish were maintained at 28.5° C. Larval fish were treated from 7 dpf to 8 dpf in tank water with DMSO or with a 24-hour pulse of 15 μM DIPQUO or inert analog BT344 or BT345, and were fixed at 9 dpf in 4% paraformaldehyde overnight rocking at 4° C. Fixed larvae were washed in PBS-0.1% Tween-20 (PBST), followed by 50% ethanol/50% PBST. […] Images were acquired on a Zeiss LSM 800 confocal microscope and Sp7^+/col10a1^+ cells quantified using ImageJ.

[1] = tested on: alkaline phosphatase (ALP); assay: Flow cytometric analysis of ALP-positive C2C12 cell population; assay type: cell-based, mouse; conditions: C2C12, day 2; baseline approximately 4% in DMSO-treated cells
Method: C2C12 cells were treated for 2 days with 10 μM DIPQUO or structural analogs, 1 ng/ml rhBMP4, or with inhibitors as noted in figure legends, and then fixed briefly in 70% acetone/10% formaldehyde/20% citrate. Staining was achieved using the leukocyte alkaline phosphatase kit (Sigma 86R-1KT) according to the manufacturer's instructions. Expression of ALP was confirmed and quantified by flow cytometric analysis, using an Accuri C6 flow cytometer. Briefly, control- or DIPQUO-treated C2C12 cells were detached and harvested on day 2 using PBS-based enzyme-free cell detachment solution (ThermoFisher). 2×10^5 cells were incubated on ice for 30 minutes with 10 μl APC-conjugated ALPL antibody (R&D Systems), and washed in ice-cold PBS before analysis. Live cells were gated and analyzed in CFlow Plus software and then data was converted to FlowJo to achieve publication-level resolution. […] After an additional 3 days, cells were either fixed and stained for ALP expression or analyzed for ALP activity using the AttoPhos Substrate kit. Hemagglutinin and FLAG epitope-tagged MKK3 (pMT2-HA-MKK3) and MKK6 (pcDNA3-FLAG-MKK6) constructs were obtained from Addgene and transfected into C2C12 cells using Lipofectamine LTX with Plus Reagent (ThermoFisher) according to manufacturer's instructions and cell extracts analyzed for protein expression and activity as described below.

Cc1cc(C)c2[nH]c(=O)c(-c3[nH]cnc3-c3ccccc3)cc2c1 [RU-0226606, 6,8-dimethyl-3-(4-phenyl-1H-imidazol-5-yl)quinolin-2(1H)-one]
number of Sp7+/Col10a1+ cells emanating from new fin ray joints (adult zebrafish): significantly increased
mineralization of vertebral primordia (alizarin red) (zebrafish larvae): accelerate and accentuate mineralization of incipient vertebral primordia
ALP-expressing fraction of the cell culture (flow cytometry) [1]: > 30%
